Consider two molecules from paper PMC11713119, “Optimizing metabolic stability of phosphodiesterase 5 inhibitors: Discovery of a potent N‐(pyridin‐3‐ylmethyl)quinoline derivative targeting synaptic plasticity” (Alzheimer's & Dementia, 2025).

The assay addresses T1, Phosphodiesterase 5 (PDE5) (Homo sapiens, UniProt O76074).
T1 construct: gene PDE5A
As to the kind of experiment: PDE5 inhibition IC50 (assay details not given). The assay is classed as biochemical.

SMILES strings stand for the structures.

For `COc1ccc(CNc2c(CO)cnc3c(C4CC4)cc(C#N)cc23)cc1Cl` [7a, 4‐((3‐chloro‐4‐methoxybenzyl)amino)‐8‐cyclopropyl‐3‐(hydroxymethyl)quinoline‐6‐carbonitrile], the IC50 (commonly the point on the concentration scale where inhibition reaches its midpoint) is 0.27 nM.
With `COc1ccc(CNc2c(CO)cnc3c(C4CC4)cc(C#N)cc23)cn1` [4b, 8‐cyclopropyl‐3‐(hydroxymethyl)‐4‐(((6‐methoxypyridin‐3‐yl)methyl)amino)quinoline‐6‐carbonitrile] the figure was 20 nM.
